In paper PMC4466525, “Design, Synthesis and Structure-Activity Relationship Studies of Novel Survivin Inhibitors with Potent Anti-Proliferative Properties” (PLoS ONE, 2015):

Assays:
[1] = test system: human melanoma A375 xenograft; test: In vivo anti-tumor efficacy, A375 xenograft; parameters: species or system nude mouse
Source text: 3 × 10^6 A375 cells were implanted into the left-side dorsal flank of each nude mouse (n = 5) to establish the human melanoma A375 tumor xenograft model as described previously. Compound 4g were first dissolved in DMSO then diluted by 2% methylcellulose PBS buffer. The proportion of DMSO in final solution was kept at lower than 5%. Mice body weight and the size of tumor were closely monitored during the 3 week continuous treatment (i.p. injection, one dose per day, five days per week). At the end point of the treatment, mice were sacrificed after anesthesia. A375 tumor tissues were isolated then freshly lysed on ice to check the targeted protein levels through Western blotting.
A375 tumor tissues collected from the in vivo efficacy study in the above were fixed in formalin phosphate buffer for one week. Then the tissues were processed to get paraffin embedded sections. TUNEL assay was performed using DeadEnd Fluorometric kit (Promega Corporation, Madison, WI) following manufacturer’s instructions. By the end of the experiment, VECTASHIELD Hard Set mounting medium with DAPI (Vector Lab, Inc., Burlingame, CA) was used to mount the tumor slides and stain the nuclei. The final slides were analyzed immediately under a fluorescence microscope (EVOS FL Cell Imaging System, Thermo Fisher Scientific Inc., NY).

PC-3 = test: Cell viability (MTS) anti-proliferative assay, PC-3; format: cell-based; details: PC-3 human prostate cancer, 48 h treatment, n = 4, read-out: IC50 values ± SEM, PC-3
Description: The anti-proliferative effect of UC-112 and its analogs were tested in human melanoma (A375, M14 and M14/LCC6MDR1) and human prostate cancer (PC-3) cell lines. All the cell lines were purchased from ATCC (American Type Culture Collection, Manassas, VA). The cancer cells were cultured using the supplemented cell culture medium as described before at 37°C in a humidified atmosphere containing 5% CO2. 5000 cells in logarithm growing phase were seeded overnight into each well of a 96-well plate. Then the cells were continuously incubated with sequential diluted compound solution (10 nM to 100 μM, 100 μl per well) in cell culture medium.

survivin [2] = target: T1, survivin (Homo sapiens, UniProt O15392); test: Western blotting of survivin level, A375 cells; format: cell-based
T1 construct: endogenous in cells; host or cells: A375 cells
Description: (§1) Lysates of A375 cells treated by the compound solution for 24 h were used to determine the change of IAP protein levels through western blotting. Primary rabbit antibodies against survivin, XIAP, cIAP1, cIAP2, livin and GAPDH were purchased from Cell Signaling Technology, Inc. (Danvers, MA) and used according to manufacture instructions as reported previously. Protein lane intensities were quantified by ImageJ software (US National Institutes of Health, Bethesda, MD).

survivin [3] = target: T1, survivin; test: DARTS assay, survivin; format: binding; details: 20 μM, pronase-digested A375 or M14 cell lysates
Description: Drug affinity responsive target stability (DARTS) assay was performed to identify the protein targets of UC-112 analogs in A375 or M14 cell lysates following the protocols described in the literature. Briefly, A375 or M14 lysates were prepared in non-denaturing M-PER lysis buffer (Thermo Fisher Scientific, Waltham, MA) with protease and phosphatase inhibitors. Then TNC (Tris, NaCl, CaCl2) buffer was added into cell lysates before the total protein concentration of lysate being determined by BCA protein assay kit (Thermo Fisher Scientific, Waltham, MA). The lysates were split into two groups: one group was added with compound of interest solution, the other group was added with same amount of vehicle (DMSO). The samples were mixed thoroughly and incubated at room temperature for 1 h. Then 10 mg/mL pronase stock solution was added into both compound treated or vehicle control groups to achieve the final dilution of 1:100, 1:300, 1:1000 and 1:3000. One aliquot of each group was kept as un-digested control. The proteolysis was performed at room temperature for 30 min before ice cold protease inhibitor stock being added into the mixture. Then SDS loading buffer was added into all the samples and heated to 70°C for 10 min. Finally, the results were analyzed by SDS-PAGE and immunoblotting.

CYP2D6 = target: T2, CYP2D6 (Homo sapiens, UniProt P10635); test: Cytochrome P450 inhibition, CYP2D6; format: in vitro ADME; details: probe dextromethorphan, substrate dextromethorphan, human liver microsomes 0.1 mg/mL, read-out: % inhibition of control values, CYP2D6
T2 construct: tissue Eurofins Panlabs Inc. (contract research service) Study Number 100017964; host or cells: human liver microsomes
Description: (§2) All these experiments were performed by a contract research service company, Eurofins Panlabs Inc. (Study Number 100017964). Aqueous solubility (μM) was determined using the shake-flask method by comparing the peak area of the principal peak in a calibration standard (200 μM) containing organic solvent (methanol/water, 60/40, v/v) with the peak area of the corresponding peak in a buffer sample. Metabolic stability study was carried out by incubating compound 4g with human liver microsomes. Metabolic stability which is expressed as percent of the parent compound remaining, was calculated by comparing the peak area of the compound at the time point relative to that at time-0. The half-life (T1/2) was estimated from the slope of the initial linear range of the logarithmic curve of compound remaining (%) vs. time. In the cytochrome P450 inhibition study, human liver microsomes (0.1 mg/mL) were incubated with different substrates and compound 4g for 10 minutes. After the incubation, peak areas corresponding to the metabolite of each substrate were recorded. The percent of control activity was then calculated by comparing the peak area obtained in the presence of compound 4g to that obtained in the absence of compound 4g. Subsequently, the percent inhibition was calculated by subtracting the percent control activity from 100.

CYP2C8 = target: T3, CYP2C8 (Homo sapiens, UniProt P10632); test: Cytochrome P450 inhibition, CYP2C8; format: in vitro ADME; details: probe paclitaxel, substrate paclitaxel, human liver microsomes 0.1 mg/mL, read-out: % inhibition of control values, CYP2C8
T3 construct: tissue Eurofins Panlabs Inc. (contract research service) Study Number 100017964; host or cells: human liver microsomes
Description: as §2

CYP2C9 = target: T4, CYP2C9 (Homo sapiens, UniProt P11712); test: Cytochrome P450 inhibition, CYP2C9; format: in vitro ADME; details: probe diclofenac, substrate diclofenac, human liver microsomes 0.1 mg/mL, read-out: % inhibition of control values, CYP2C9
T4 construct: tissue Eurofins Panlabs Inc. (contract research service) Study Number 100017964; host or cells: human liver microsomes
Description: as §2

[4] = test system: other IAPs (XIAP, cIAP1, cIAP2, livin); test: Western blotting of other IAP levels; format: cell-based, human; details: 24 h, A375 and PC-3 cells
Description: as §1

CYP2B6 = target: T5, CYP2B6 (Homo sapiens, UniProt P20813); test: Cytochrome P450 inhibition, CYP2B6; format: in vitro ADME; details: probe bupropion, substrate bupropion, human liver microsomes 0.1 mg/mL, read-out: % inhibition of control values, CYP2B6
T5 construct: tissue Eurofins Panlabs Inc. (contract research service) Study Number 100017964; host or cells: human liver microsomes
Description: as §2

T1 sequence (O15392 whole entry): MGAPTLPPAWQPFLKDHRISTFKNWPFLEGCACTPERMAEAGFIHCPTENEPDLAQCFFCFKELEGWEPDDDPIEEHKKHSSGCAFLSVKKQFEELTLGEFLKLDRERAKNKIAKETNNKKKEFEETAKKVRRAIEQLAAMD
T4 sequence (P11712 whole entry): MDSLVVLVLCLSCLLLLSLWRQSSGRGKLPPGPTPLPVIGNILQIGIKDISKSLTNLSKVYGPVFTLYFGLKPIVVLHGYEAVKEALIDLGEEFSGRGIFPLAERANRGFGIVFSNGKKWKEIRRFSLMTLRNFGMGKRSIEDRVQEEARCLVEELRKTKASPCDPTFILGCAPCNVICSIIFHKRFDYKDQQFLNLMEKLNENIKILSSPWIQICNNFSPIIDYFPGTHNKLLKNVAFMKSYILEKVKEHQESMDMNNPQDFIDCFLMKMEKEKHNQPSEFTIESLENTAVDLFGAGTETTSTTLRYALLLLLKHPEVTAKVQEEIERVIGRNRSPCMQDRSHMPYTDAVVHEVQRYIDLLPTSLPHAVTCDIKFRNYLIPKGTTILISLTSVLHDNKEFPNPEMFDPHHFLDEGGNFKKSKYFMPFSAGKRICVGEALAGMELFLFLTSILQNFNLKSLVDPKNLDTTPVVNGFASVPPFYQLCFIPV
T2 sequence (P10635 whole entry): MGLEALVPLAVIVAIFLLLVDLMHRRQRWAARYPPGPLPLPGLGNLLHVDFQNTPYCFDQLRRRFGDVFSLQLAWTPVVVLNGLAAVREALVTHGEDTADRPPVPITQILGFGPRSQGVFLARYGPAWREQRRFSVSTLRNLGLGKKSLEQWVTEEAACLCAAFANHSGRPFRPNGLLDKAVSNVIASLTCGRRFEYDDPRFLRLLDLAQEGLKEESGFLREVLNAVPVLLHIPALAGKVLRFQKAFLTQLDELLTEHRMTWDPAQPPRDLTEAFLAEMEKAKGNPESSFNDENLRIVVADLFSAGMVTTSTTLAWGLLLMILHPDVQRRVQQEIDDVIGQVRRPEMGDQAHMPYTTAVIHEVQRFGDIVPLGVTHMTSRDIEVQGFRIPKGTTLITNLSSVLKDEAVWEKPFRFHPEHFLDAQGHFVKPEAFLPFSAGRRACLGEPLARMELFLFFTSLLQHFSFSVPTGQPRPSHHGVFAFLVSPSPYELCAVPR
T5 sequence (P20813 whole entry): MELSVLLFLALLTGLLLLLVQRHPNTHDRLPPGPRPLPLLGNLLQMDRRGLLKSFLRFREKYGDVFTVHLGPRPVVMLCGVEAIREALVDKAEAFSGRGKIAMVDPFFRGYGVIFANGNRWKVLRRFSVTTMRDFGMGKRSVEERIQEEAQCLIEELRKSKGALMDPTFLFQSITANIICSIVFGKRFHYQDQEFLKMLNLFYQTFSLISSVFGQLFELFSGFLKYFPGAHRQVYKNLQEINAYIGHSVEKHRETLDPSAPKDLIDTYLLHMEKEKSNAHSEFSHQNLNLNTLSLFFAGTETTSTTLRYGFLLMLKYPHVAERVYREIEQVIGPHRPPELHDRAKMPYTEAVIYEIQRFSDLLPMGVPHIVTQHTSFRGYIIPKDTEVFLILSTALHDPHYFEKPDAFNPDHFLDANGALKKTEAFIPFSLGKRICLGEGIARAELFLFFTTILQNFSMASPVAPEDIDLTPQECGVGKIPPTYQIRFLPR
T3 sequence (P10632 whole entry): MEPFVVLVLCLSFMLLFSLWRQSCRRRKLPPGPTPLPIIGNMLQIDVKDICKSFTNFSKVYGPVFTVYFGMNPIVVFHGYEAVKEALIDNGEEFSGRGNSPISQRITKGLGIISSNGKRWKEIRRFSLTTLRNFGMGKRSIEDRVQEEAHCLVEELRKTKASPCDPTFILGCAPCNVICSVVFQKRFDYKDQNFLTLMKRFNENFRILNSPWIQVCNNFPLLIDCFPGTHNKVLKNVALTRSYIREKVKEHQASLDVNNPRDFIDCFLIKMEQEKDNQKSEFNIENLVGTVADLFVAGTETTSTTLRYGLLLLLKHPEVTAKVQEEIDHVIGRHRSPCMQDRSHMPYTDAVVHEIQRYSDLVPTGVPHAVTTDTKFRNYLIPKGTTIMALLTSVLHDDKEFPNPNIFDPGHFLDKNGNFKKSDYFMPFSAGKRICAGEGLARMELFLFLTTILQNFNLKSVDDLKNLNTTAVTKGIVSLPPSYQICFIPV

## CC(C)c1ccc(COCc2cc(CN3CCCC3)c(O)c3ncccc23)cc1 [4g, 5-(((4-isopropylbenzyl)oxy)methyl)-7-(pyrrolidin-1-ylmethyl)quinolin-8-ol]
[1]; 20 mg/kg i.p., three weeks, A375 xenograft
  Tumor growth slower than vehicle control group, 20 mg/kg: 53%
[1]; 40 mg/kg i.p., three weeks, A375 xenograft
  Tumor growth slower than vehicle control group, 40 mg/kg: 79%
[1]; 40 mg/kg, formalin-fixed tumor sections
  TUNEL assay of tumor tissues: widely-spread cell apoptosis
[1]; Western blotting of A375 xenograft tumor tissues from treated groups
  Expression levels of survivin and XIAP protein in tumor tissues: decreased
[1]; three weeks i.p. treatment
  Mice body weight: without causing obvious decrease of mice body weight
PC-3
  IC50: 700 ± 100 nM
Survivin [2]; 300 nM, 24 h, A375 cells, lane density by ImageJ
  Reduction of survivin level, A375: over 50%
Survivin [2]; estimated from western blotting, A375 and PC-3 cells
  IC50 values for survivin inhibition: low nanomolar range
Survivin [2]; gradient increasing dose, 24 h, A375 cells
  Effect on survivin level, A375: dose-dependently suppressed survivin level
Survivin [3]
  Protease susceptibility of survivin (DARTS): significantly reduced
CYP2D6
  inhibition at 10 min: 87%
CYP2C8
  inhibition at 10 min: 21%
CYP2C9
  inhibition at 10 min: 17%
[4]
  Effect on levels of other IAPs: minimally affected
CYP2B6
  inhibition at 10 min: 21%
